How the values were obtained:
[1] = Reported human pharmacokinetics of ketamine by IV infusion, oral or intranasal route; settings: 40-min IV infusion of 35 mg of ketamine
Text: There has been very limited data on monitoring HNK pharmacokinetics in humans in a robust approach. […] Also HNK was shown preclinically to have lower potential of AEs.

[2] = Phase 1 clinical study: plasma pharmacokinetics after ketamine transdermal patch; settings: for plasma concentration: 28 mg dose; for AUC: AUCall; for AUC(0-inf): AUCinf
Description: Enrollment was planned to achieve participation of up to 14 adult subjects with MDD in the 3 stages of the protocol. Subjects were to be screened within 4 weeks of enrollment. Eligible subjects who provided written consent were to be enrolled into Stage 1 of the study. In Stage 1 of the study, subjects were to receive the low-dose transdermal patch. The amount of residual drug was to be measured and PK analysis conducted for each subject to inform the subsequent dosing. In Stage 2, after a 2 to 4 week washout period, a placebo patch was to be administered. A “deception” protocol was used in order to ensure the subjects remained blinded to the treatment. Placebo administration was followed by a 1 week washout period, after which subjects were to receive the high-dose transdermal patch in Stage 3. The overall study duration from screening until the end of Stage 3 was approximately 60 days, including both inpatient and outpatient portions of the study. The general study design is illustrated in FIG. 3.
The patch was predicted to deliver systemically approximately 20 mg.
For Stage 1, blood samples were collected pre-patch application, and at 2, 6, 12, 24, 28, 32, 48, 96, and 168 hours post-patch application.
Blood samples were collected in tubes containing sodium heparin and stored on ice or room temperature until centrifuged under refrigeration or room temperature for at least 10 minutes at 3,000 revolutions per minute. After centrifugation, plasma was removed, divided into 2 aliquots of approximately 0.6 mL each, frozen, and stored at or below −20° C. Blood was processed to plasma and frozen within 1 hour of collection. Processed frozen plasma samples were transferred on dry ice to the analytical laboratory and were stored at or below −20° C. until bioanalysis was performed.
A non-compartmental analysis (NCA) was used to calculate PK parameters using Phoenix® WinNonlin® 6.4 or later (Certara, USA).

[3] = Prediction of delivered dose and human PK from in vitro permeability and PK linearity; settings: predicted
NMDA receptor = settings: in vitro; Shimoyama et al., 1999; cited from earlier work

NC1(c2ccccc2Cl)CCCC(O)C1=O (stereo not drawn) [Hydroxynorketamine, hydroxynorketamine]
ratio of AUC of HNK/Ketamine ([1]; MDD patients, digitized from Zarate et al.): 0.522 | ratio of Cmax of HNK/ketamine ([1]; digitized from Zarate et al.): about 0.113 | plasma concentration ([2]; 48 hours post application of tested ketamine patch): about 10 ng/ml | plasma concentration ([2]; 72 hours post application of tested ketamine patch): about 6 ng/ml | AUCall ([2]; Stage 1 (60 cm^2 patch, 24 h, low-dose), Mean): 438 ng·h/mL | AUCall ([2]; Stage 1 (60 cm^2 patch, 24 h, low-dose), Median): 364 ng·h/mL | AUCinf ([2]; Stage 1, Mean): 666 ng·h/mL | Cmax ([2]; Stage 1, Mean): 12.3 ng/mL | Extrap ([2]; Stage 1, Mean): 10% | T1/2 ([2]; Stage 1, Mean): 19.3 h | Tmax ([2]; Stage 1, Mean): 33.0 h | AUCinf ([2]; Stage 1, Median): 573 ng·h/mL | Cmax ([2]; Stage 1, Median): 12.6 ng/mL | Extrap ([2]; Stage 1, Median): 6% | T1/2 ([2]; Stage 1, Median): 17.9 h | Tmax ([2]; Stage 1, Median): 32.0 h | AUCall ([2]; Stage 3 (20 and 60 cm^2 patches, high-dose), Mean): 549 ng·h/mL | AUCall ([2]; Stage 3 (20 and 60 cm^2 patches, high-dose), Median): 488 ng·h/mL | AUCinf ([2]; Stage 3, Mean): 839 ng·h/mL | Cmax ([2]; Stage 3, Mean): 15.7 ng/mL | Extrap ([2]; Stage 3, Mean): 15% | T1/2 ([2]; Stage 3, Mean): 20.2 h | Tmax ([2]; Stage 3, Mean): 33.5 h | AUCinf ([2]; Stage 3, Median): 660 ng·h/mL | Cmax ([2]; Stage 3, Median): 12.8 ng/mL | Extrap ([2]; Stage 3, Median): 10% | T1/2 ([2]; Stage 3, Median): 19.5 h | Tmax ([2]; Stage 3, Median): 29.9 h | ratio of AUC of HNK/Ketamine ([2]; tested ketamine patch): 2.23 | ratio of Cmax of HNK/ketamine ([2]; tested ketamine patch): 1.19 | Cmax resulting from about 100 mg dose by ketamine transdermal delivery device [3]: around 30 ng/mL

NC1(c2ccccc2Cl)CCCCC1=O (stereo not drawn) [Norketamine, norketamine]
ratio of AUC of NK/Ketamine ([1]; digitized literature data): 0.989 | ratio of Cmax of NK/ketamine ([1]; digitized literature data): about 0.362 | Extrap ([2]; Stage 1, Mean): 12% | Extrap ([2]; Stage 1, Median): 11% | Extrap ([2]; Stage 3, Mean): 7% | Extrap ([2]; Stage 3, Median): 7% | AUC ([2]; human, plasma, other: transdermal patch, 20 mg, Stage 1 (60 cm^2 patch, 24 h, low-dose), Mean): 377 ng·h/mL | AUC ([2]; human, plasma, other: transdermal patch, 20 mg, Stage 1 (60 cm^2 patch, 24 h, low-dose), Median): 328 ng·h/mL | AUC(0-inf) ([2]; human, plasma, other: transdermal patch, 20 mg, Stage 1, Mean): 420 ng·h/mL | AUC(0-inf) ([2]; human, plasma, other: transdermal patch, 20 mg, Stage 1, Median): 367 ng·h/mL | Cmax ([2]; human, plasma, other: transdermal patch, 20 mg, Cmax, Stage 1, Mean): 11.1 ng/mL | Cmax ([2]; human, plasma, other: transdermal patch, 20 mg, Cmax, Stage 1, Median): 9.85 ng/mL | half-life ([2]; human, plasma, other: transdermal patch, 20 mg, T1/2, Stage 1, Mean): 19.4 h | half-life ([2]; human, plasma, other: transdermal patch, 20 mg, T1/2, Stage 1, Median): 21 h | Tmax ([2]; human, plasma, other: transdermal patch, 20 mg, Tmax, Stage 1, Mean): 28.4 h | Tmax ([2]; human, plasma, other: transdermal patch, 20 mg, Tmax, Stage 1, Median): 28 h | AUC ([2]; human, plasma, other: transdermal patch, 40 mg, Stage 3 (20 and 60 cm^2 patches, high-dose), Mean): 486 ng·h/mL | AUC ([2]; human, plasma, other: transdermal patch, 40 mg, Stage 3 (20 and 60 cm^2 patches, high-dose), Median): 387 ng·h/mL | AUC(0-inf) ([2]; human, plasma, other: transdermal patch, 40 mg, Stage 3, Mean): 624 ng·h/mL | AUC(0-inf) ([2]; human, plasma, other: transdermal patch, 40 mg, Stage 3, Median): 500 ng·h/mL | Cmax ([2]; human, plasma, other: transdermal patch, 40 mg, Cmax, Stage 3, Mean): 13.4 ng/mL | Cmax ([2]; human, plasma, other: transdermal patch, 40 mg, Cmax, Stage 3, Median): 10.3 ng/mL | half-life ([2]; human, plasma, other: transdermal patch, 40 mg, T1/2, Stage 3, Mean): 17.9 h | half-life ([2]; human, plasma, other: transdermal patch, 40 mg, T1/2, Stage 3, Median): 19.2 h | Tmax ([2]; human, plasma, other: transdermal patch, 40 mg, Tmax, Stage 3, Mean): 31.1 h | Tmax ([2]; human, plasma, other: transdermal patch, 40 mg, Tmax, Stage 3, Median): 28 h | ratio of AUC of NK/Ketamine ([2]; tested ketamine patch): 1.40 | ratio of Cmax of NK/ketamine ([2]; tested ketamine patch): 1.08

CN[C@]1(c2ccccc2Cl)CCCCC1=O [S-ketamine]
greater affinity than R-ketamine for NMDA receptor binding (NMDA receptor): ~4 fold

Source: US11559497B2 (Guangzhou Dazhou Biomedicine Ltd., priority 2020, dated 2023)
